Measurements from US20240158418A1 (C4 Therapeutics, Inc., priority 2021, published 2024).
Where two headings read alike, the source gives them in different places.

Target: T1, EGFR L858R-T790M (Homo sapiens, UniProt P00533, L858R/T790M)
T1 construct: NCI-H1975 (harboring EGFR heterozygous L858R-T790M mutations); host or cells: NCI-H1975
Assay: EGFR degradation, Total EGFR (L858R-specific) HTRF, NCI-H1975
Type: cell-based
Conditions: NCI-H1975 cells, 6 hours, Total EGFR HTRF, read-out: H1975 EGFR DC50
Source text: NCI-H1975 (harboring EGFR heterozygous L858R-T790M mutations) and NCI-H3255 (harboring EGFR heterozygous L858R mutation) were purchased from ATCC and NCI, respectively. NCI-H1975+CS (harboring EGFR heterozygous L858R-T790M-C797S mutations) was generated using CRISPR technology to introduce the additional C797S mutation by Horizon Discovery. A431 (harboring EGFR wildtype) was purchased from ATCC. RPMI 1640 no-phenol red medium and fetal bovine serum (FBS) were purchased from Gibco (Grand Island, NY, USA). Cell culture flasks and 384-well microplates were acquired from VWR (Radnor, PA, USA). Phosphorylated (pY1068) EGFR and Total EGFR (using L858R-specific detection antibody and pan-EGFR antibody for EGFR mutant cell lines and EGFR wild-type cell lines, respectively) HTRF assay kits were purchased from Cisbio (Bedford, MA, USA).
Degradation of EGFR protein containing L858R mutation or wild-type was determined based on quantification of FRET signal using a Total EGFR (L858R-specific or pan-EGFR detecting) HTRF assay kit. Phospho-EGFR (pEGFR) inhibition was determined based on quantification of FRET signal using a pY1068 EGFR HTRF assay kit. In separate assay plates, test compounds were added to the 384-well plate from a top concentration of 10 μM with 11 points, half log titration in duplicates. For each assay, 12.5 uL of cells suspended in assay media (RPMI 1640 no-phenol red medium+10% FBS) at cell densities indicated for each cell line in Table 8 below were dispensed using a multi-channel pipette to 384-well low volume white HTRF microplates containing a duplicate concentration range of test compounds and DMSO controls. The plates were kept at 37° C. with 5% CO2 for 6 hours and then incubated with either phospho EGFR or Total EGFR HTRF detection antibodies according to the cell line and EGFR mutant being assayed. Cells treated in the absence of the test compound were the negative control. Positive control was set by wells containing all reagents but no cells. FRET signal was acquired on EnVision™ Multilabel Reader (PerkinElmer, Santa Clara, CA, USA). Compound concentration that achieves 50% degradation and inhibition was reported as DC50 and IC50, respectively.

T1 sequence (P00533 25-1210 T790M/L858R): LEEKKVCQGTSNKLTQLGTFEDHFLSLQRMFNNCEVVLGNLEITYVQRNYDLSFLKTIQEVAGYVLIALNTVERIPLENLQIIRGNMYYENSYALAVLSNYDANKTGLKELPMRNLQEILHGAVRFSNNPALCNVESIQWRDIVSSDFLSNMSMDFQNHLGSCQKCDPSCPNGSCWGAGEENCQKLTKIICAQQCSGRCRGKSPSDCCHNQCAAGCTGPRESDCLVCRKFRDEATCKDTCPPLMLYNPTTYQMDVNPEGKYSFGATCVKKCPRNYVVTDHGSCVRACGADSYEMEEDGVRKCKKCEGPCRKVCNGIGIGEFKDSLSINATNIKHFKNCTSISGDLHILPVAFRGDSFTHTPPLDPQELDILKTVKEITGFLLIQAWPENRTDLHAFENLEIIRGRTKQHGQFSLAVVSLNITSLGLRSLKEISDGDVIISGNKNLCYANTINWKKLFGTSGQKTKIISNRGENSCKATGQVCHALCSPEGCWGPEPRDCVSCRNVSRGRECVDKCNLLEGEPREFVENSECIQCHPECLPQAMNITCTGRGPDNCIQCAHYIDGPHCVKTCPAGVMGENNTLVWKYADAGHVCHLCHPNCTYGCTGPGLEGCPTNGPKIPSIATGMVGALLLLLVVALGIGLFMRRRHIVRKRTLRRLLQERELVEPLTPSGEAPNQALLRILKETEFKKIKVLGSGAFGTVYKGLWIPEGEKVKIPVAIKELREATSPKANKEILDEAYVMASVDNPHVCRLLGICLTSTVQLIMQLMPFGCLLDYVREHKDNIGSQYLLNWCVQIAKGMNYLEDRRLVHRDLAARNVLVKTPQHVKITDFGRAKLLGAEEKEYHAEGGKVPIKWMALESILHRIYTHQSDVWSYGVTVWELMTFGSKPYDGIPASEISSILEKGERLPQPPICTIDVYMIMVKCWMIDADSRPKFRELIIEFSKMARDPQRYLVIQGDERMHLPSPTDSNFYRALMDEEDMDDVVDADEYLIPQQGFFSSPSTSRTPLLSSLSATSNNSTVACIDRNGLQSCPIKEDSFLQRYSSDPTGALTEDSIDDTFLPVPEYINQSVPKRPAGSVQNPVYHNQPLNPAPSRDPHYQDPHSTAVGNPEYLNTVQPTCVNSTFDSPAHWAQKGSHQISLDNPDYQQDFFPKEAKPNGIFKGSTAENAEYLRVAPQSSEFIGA

Structure (SMILES)	DC50 (Table 9B)	DC50 (Table 9A)
O=C1CC[C@H](Nc2ccc(N3CCC(O)(CC(=O)N4CCC5(CC4)CN(c4ccc(-c6cc(F)c7cn(C(C(=O)Nc8nccs8)c8ncn9c8CCC9)nc7c6)cc4)C5)CC3)c(F)c2)C(=O)N1 (stereo partly drawn) [Compound 79, 2-(6,7-dihydro-5H-pyrrolo[1,2-c]imidazol-1-yl)-2-(6-(4-(7-(2-(1-(4-(((S)-2,6-dioxopiperidin-3-yl)amino)-2-fluorophenyl)-4-hydroxypiperidin-4-yl)acetyl)-2,7-diazaspiro[3.5]nonan-2-yl)phenyl)-4-fluoro-2H-indazol-2-yl)-N-(thiazol-2-yl)acetamide]	< 50 nM	–
O=C1CCC(Nc2ccc(N3CCC(O)(CC(=O)N4CCC5(CC4)CN(c4ccc(-c6cc(F)c7c(c6)C(=O)N(C(C(=O)Nc6nccs6)c6ncn8c6CCC8)C7)cc4)C5)CC3)c(F)c2)C(=O)N1 (centres unmarked) [Compound 114, 2-(6,7-dihydro-5H-pyrrolo[1,2-c]imidazol-1-yl)-2-[6-[4-[7-[2-[1-[4-[(2,6-dioxo-3-piperidyl)amino]-2-fluoro-phenyl]-4-hydroxy-4-piperidyl]acetyl]-2,7-diazaspiro[3.5]nonan-2-yl]phenyl]-4-fluoro-1-oxo-isoindolin-2-yl]-N-thiazol-2-yl-acetamide]	< 50 nM	–
O=C1CCC(Nc2ccc(C3CCN(CC(=O)N4CCN(c5ccc(-c6cc(F)c7cn(C(C(=O)Nc8nccs8)c8ncn9c8CCC9)nc7c6)cn5)CC4)CC3)cc2)C(=O)N1 (centres unmarked) [Compound 65, 2-(6,7-dihydro-5H-pyrrolo[1,2-c]imidazol-1-yl)-2-[6-[6-[4-[2-[4-[4-[(2,6-dioxo-3-piperidyl)amino]phenyl]-1-piperidyl]acetyl]piperazin-1-yl]-3-pyridyl]-4-fluoro-indazol-2-yl]-N-thiazol-2-yl-acetamide]	–	< 50 nM
Cn1nc(N2CCC(=O)NC2=O)c2cc(F)c(C3CCN(CC(=O)N4CC5(C4)CN(c4ccc(-c6cc(F)c7c(c6)C(=O)N(C(C(=O)Nc6nccs6)c6ncn8c6CCC8)C7)cc4)C5)CC3(F)F)cc21 (single isomer, unassigned; isomer 2) [Compound 130, 2-(6,7-dihydro-5H-pyrrolo[1,2-c]imidazol-1-yl)-2-[6-[4-[2-[2-[4-[3-(2,4-dioxohexahydropyrimidin-1-yl)-5-fluoro-1-methyl-indazol-6-yl]-3,3-difluoro-1-piperidyl]acetyl]-2,6-diazaspiro[3.3]heptan-6-yl]phenyl]-4-fluoro-1-oxo-isoindolin-2-yl]-N-thiazol-2-yl-acetamide, isomer 2]	< 50 nM	–
COc1cc(N2CCC(O)(CC(=O)N3CC4(C3)CN(c3ccc(-c5cc(F)c6c(c5)C(=O)N(C(C(=O)Nc5nccs5)c5ncn7c5CCC7)C6)cc3)C4)CC2)c(F)cc1NC1CCC(=O)NC1=O (single isomer, unassigned) [Compound 173, 2-(6,7-dihydro-5H-pyrrolo[1,2-c]imidazol-1-yl)-2-[6-[4-[2-[2-[1-[4-[[2,6-dioxo-3-piperidyl]amino]-2-fluoro-5-methoxy-phenyl]-4-hydroxy-4-piperidyl]acetyl]-2,6-diazaspiro[3.3]heptan-6-yl]phenyl]-4-fluoro-1-oxo-isoindolin-2-yl]-N-thiazol-2-yl-acetamide]	< 50 nM	–
Cn1nc(N2CCC(=O)NC2=O)c2ccc(C3CCN(CC(=O)N4CC5(CCN(c6ccc(-c7cc(F)c8c(c7)C(=O)N(C(C(=O)Nc7nccs7)c7ncn9c7CCC9)C8)cc6)CC5)C4)CC3(F)F)cc21 (centres unmarked) [Compound 106, 2-(6,7-dihydro-5H-pyrrolo[1,2-c]imidazol-1-yl)-2-(6-(4-(2-(2-(4-(3-(2,4-dioxotetrahydropyrimidin-1(2H)-yl)-1-methyl-1H-indazol-6-yl)-3,3-difluoropiperidin-1-yl)acetyl)-2,7-diazaspiro[3.5]nonan-7-yl)phenyl)-4-fluoro-1-oxoisoindolin-2-yl)-N-(thiazol-2-yl)acetamide]	< 50 nM	–
O=C1CC[C@H](Nc2ccc(C3CCN(CC(=O)N4CCC(Oc5ccc(-c6cc(F)c7c(c6)C(=O)N(C(C(=O)Nc6nccs6)c6ncn8c6CCC8)C7)cc5)CC4)CC3)c(F)c2)C(=O)N1 (stereo partly drawn) [Compound 39, 2-(6,7-dihydro-5H-pyrrolo[1,2-c]imidazol-1-yl)-2-(6-(4-((1-(2-(4-(4-(((S)-2,6-dioxopiperidin-3-yl)amino)-2-fluorophenyl)piperidin-1-yl)acetyl)piperidin-4-yl)oxy)phenyl)-4-fluoro-1-oxoisoindolin-2-yl)-N-(thiazol-2-yl)acetamide]	–	50 to 150 nM
O=C1CC[C@H](Nc2ccc(N3CCC(O)(CC(=O)N4CCC(n5cc(-c6cc(F)c7c(c6)C(=O)N(C(C(=O)Nc6nccs6)c6ncn8c6CCC8)C7)cn5)CC4)CC3)c(F)c2)C(=O)N1 (stereo partly drawn) [Compound 142, 2-(6,7-dihydro-5H-pyrrolo[1,2-c]imidazol-1-yl)-2-[6-[1-[1-[2-[1-[4-[[(3S)-2,6-dioxo-3-piperidyl]amino]-2-fluoro-phenyl]-4-hydroxy-4-piperidyl]acetyl]-4-piperidyl]pyrazol-4-yl]-4-fluoro-1-oxo-isoindolin-2-yl]-N-thiazol-2-yl-acetamide]	< 50 nM	–
O=C1CCC(Nc2ccc(-c3ccc(CC(=O)N4CCC(Oc5ccc(-c6cc(F)c7c(c6)C(=O)N(C(C(=O)Nc6nccs6)c6ncn8c6CCC8)C7)cc5)CC4)cc3)cc2)C(=O)N1 (centres unmarked) [Compound 81, 2-(6,7-dihydro-5H-pyrrolo[1,2-c]imidazol-1-yl)-2-(6-(4-((1-(2-(4′-((2,6-dioxopiperidin-3-yl)amino)-[1,1′-biphenyl]-4-yl)acetyl)piperidin-4-yl)oxy)phenyl)-4-fluoro-1-oxoisoindolin-2-yl)-N-(thiazol-2-yl)acetamide]	50 to 150 nM	–
O=C1CCC(Nc2ccc(N3CCC(O)(CC(=O)N4CCN(c5ccc(-c6cc(F)c7c(c6)C(=O)N(C(C(=O)Nc6nccs6)c6ncn8c6CCC8)C7)cc5)CC4)CC3)c(C(F)(F)F)c2)C(=O)N1 (centres unmarked) [Compound 18, 2-(6,7-dihydro-5H-pyrrolo[1,2-c]imidazol-1-yl)-2-(6-(4-(4-(2-(1-(4-((2,6-dioxopiperidin-3-yl)amino)-2-(trifluoromethyl)phenyl)-4-hydroxypiperidin-4-yl)acetyl)piperazin-1-yl)phenyl)-4-fluoro-1-oxoisoindolin-2-yl)-N-(thiazol-2-yl)acetamide]	–	< 50 nM
O=C1CC[C@H](Nc2ccc(C3CCN(CC(=O)N4CC[C@@H](Oc5ccc(-c6cc(F)c7c(c6)C(=O)N(C(C(=O)Nc6nccs6)c6ncn8c6CCC8)C7)cc5)C4)CC3)cc2)C(=O)N1 (stereo partly drawn) [Compound 41, 2-(6,7-dihydro-5H-pyrrolo[1,2-c]imidazol-1-yl)-2-[6-[4-[(3R)-1-[2-[4-[4-[[(3S)-2,6-dioxo-3-piperidyl]amino]phenyl]-1-piperidyl]acetyl]pyrrolidin-3-yl]oxyphenyl]-4-fluoro-1-oxo-isoindolin-2-yl]-N-thiazol-2-yl-acetamide]	–	< 50 nM
O=C1CCC(Nc2ccc(N3CCC(O)(CC(=O)N4CCC5(CC4)CN(c4ccc(-c6cc(F)c7c(c6)C(=O)N(C(C(=O)Nc6nccs6)c6ncn8c6CCC8)C7)cc4)C5)CC3)c(Cl)c2)C(=O)N1 (single isomer, unassigned; isomer 1) [Compound 138, 2-[6-[4-[7-[2-[1-[2-chloro-4-[[2,6-dioxo-3-piperidyl]amino]phenyl]-4-hydroxy-4-piperidyl]acetyl]-2,7-diazaspiro[3.5]nonan-2-yl]phenyl]-4-fluoro-1-oxo-isoindolin-2-yl]-2-(6,7-dihydro-5H-pyrrolo[1,2-c]imidazol-1-yl)-N-thiazol-2-yl-acetamide, isomer 1]	< 50 nM	–
Cn1nc(N2CCC(=O)NC2=O)c2ccc([C@@H]3CCN(C(=O)CN4CC5(CCN(c6ccc(-c7cc(F)c8c(c7)C(=O)N(C(C(=O)Nc7nccs7)c7ncn9c7CCC9)C8)cc6)CC5)C4)CC3(F)F)cc21 (stereo partly drawn) [Compound 144, 2-(6,7-dihydro-5H-pyrrolo[1,2-c]imidazol-1-yl)-2-[6-[4-[2-[2-[(4S)-4-[3-(2,4-dioxohexahydropyrimidin-1-yl)-1-methyl-indazol-6-yl]-3,3-difluoro-1-piperidyl]-2-oxo-ethyl]-2,7-diazaspiro[3.5]nonan-7-yl]phenyl]-4-fluoro-1-oxo-isoindolin-2-yl]-N-thiazol-2-yl-acetamide]	< 50 nM	–
O=C1CCC(Nc2cc(F)c(N3CCC(CC(=O)N4CC5(C4)CN(c4ccc(-c6cc(F)c7c(c6)C(=O)N(C(C(=O)Nc6nccs6)c6ncn8c6CCC8)C7)cc4)C5)CC3)c(F)c2)C(=O)N1 (centres unmarked) [Compound 101, 2-(6,7-dihydro-5H-pyrrolo[1,2-c]imidazol-1-yl)-2-(6-(4-(6-(2-(1-(4-((2,6-dioxopiperidin-3-yl)amino)-2,6-difluorophenyl)piperidin-4-yl)acetyl)-2,6-diazaspiro[3.3]heptan-2-yl)phenyl)-4-fluoro-1-oxoisoindolin-2-yl)-N-(thiazol-2-yl)acetamide]	50 to 150 nM	–
